The text below walks through data of patent US8940739B2, “Compound of a reverse-turn mimetic and a production method and use therefor” (JW Pharmaceutical Corporation, priority 2010, dated 2015).

Each structure is given as a SMILES string. pIC50: −log10 of the molar value. A value given as a limit tells only on which side of the number the result lay.

Data set [1] addresses cDNA-expressed human hepatic CYP3A4 (Homo sapiens (Human), UniProt P08684). In words: Measurement of CYP (IC50 of P450 CYP3A4), BFC substrate. The class given is in vitro ADME. The note with it: 20 minutes. As to the method:
The compounds of the present invention had lower P450 CYP3A4 inhibitory activity (higher IC50). Lower CYP3A4 inhibitory activity means that the compounds of the present invention cause fewer side-effects from the pharmacological point of view.
This assay was performed in a 200 l volume in 96-well microtiter plates using cDNA-expressed human hepatic CYP3A4 (supersome, BD Gentest™ #456202). As a substrate for CYP3A4, 7-benzyloxy-4-trifluoromethyl-coumarin (BFC) was used. The compounds of Examples 1 to 5 and the substrate BFC were dissolved in 100% acetonitrile. The final volume of acetonitrile of the incubation mixture was less than 1% (volume/volume). A potassium phosphate buffer (pH 7.4, final concentration 0.1M), MgCl2 (final concentration 8.3 mM), EDTA (final concentration 1.67 mM), an inventive compound stock solution, CYP3A4 supersome, and NADPH (final concentration 0.25 mM) were added to each well. The reaction was initiated by adding the substrate (BFC, final concentration 30 µM) at 37. The incubation was performed for 20 minutes and then the reaction was terminated by the addition of 75 μl of acetonitrile: 0.5 M tris-base=4:1 (volume/volume).
Then, a fluorescent signal was measured using a fluorometer. A BFC metabolite, 7-hydroxy-4-trifluoromethyl-coumarin, was measured using an excitation wavelength of 409 nm and an emission wavelength of 530 nm.

For data set [2], the system named is MV-4-11 (human, Acute Myeloid Leukemia cell line) cells. The data set can be described thus: Cell growth inhibition assay, GI50 of MV-4-11. Conditions: Homo sapiens, MV4-11, 72 h, MV-4-11 cells. The class given is cell-based. In short, it runs like this: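 MV-4-11 AML cells (5×10^4/well, IMDM with 10% FBS) treated in duplicate with serially diluted compounds for 72 hours at 37 °C. Viability read as absorbance at 490 nm after CellTiter 96 Aqueous One (MTS) addition; GI50 calculated from the concentration-response.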

Chain of cDNA-expressed human hepatic CYP3A4 (P08684 whole entry): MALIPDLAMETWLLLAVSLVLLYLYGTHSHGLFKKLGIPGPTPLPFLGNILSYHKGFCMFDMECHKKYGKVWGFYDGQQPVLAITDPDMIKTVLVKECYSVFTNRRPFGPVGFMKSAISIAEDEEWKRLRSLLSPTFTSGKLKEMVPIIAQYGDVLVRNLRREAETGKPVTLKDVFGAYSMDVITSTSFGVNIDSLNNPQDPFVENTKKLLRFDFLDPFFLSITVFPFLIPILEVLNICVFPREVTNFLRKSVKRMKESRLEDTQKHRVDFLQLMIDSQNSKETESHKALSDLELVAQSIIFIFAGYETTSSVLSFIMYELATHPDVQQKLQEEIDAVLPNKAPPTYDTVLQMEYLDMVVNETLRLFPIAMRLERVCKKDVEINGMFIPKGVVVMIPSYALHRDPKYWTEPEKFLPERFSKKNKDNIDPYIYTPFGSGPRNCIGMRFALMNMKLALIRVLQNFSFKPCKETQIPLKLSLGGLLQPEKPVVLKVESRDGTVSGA

In data set [1], `C=CCN1CC(=O)N2[C@@H](Cc3ccc(O)cc3)C(=O)N(Cc3cccc4c(-c5ccc(NC(=O)c6ccc(N)cc6)cc5)cn(C)c34)C[C@@H]2N1C(=O)NCc1ccccc1` [Compound D-50] had a pIC50 of less than 4.60. For the same compound, it took 2 nM to inhibit growth in data set [2] by half (GI50).
Taken in the same sequence, the figures for `C=CCN1CC(=O)N2[C@@H](Cc3ccc(O)cc3)C(=O)N(Cc3cccc4c(-c5ccc(NC(=O)c6ccc(N(C)C)cc6)cc5)cn(C)c34)C[C@@H]2N1C(=O)NCc1ccccc1` [Compound D-51] were less than 4.60 and 5.4 nM.
Taken in the same sequence, the figures for `C=CCN1CC(=O)N2[C@@H](Cc3ccc(O)cc3)C(=O)N(Cc3cccc4c(-c5ccc(NC(=O)c6ccc(CN(CC)CC)cc6)cc5)cn(C)c34)C[C@@H]2N1C(=O)NCc1ccccc1` [Compound D-55] were 5.65 and 5.8 nM.
Taken in the same sequence, the figures for `C=CCN1CC(=O)N2[C@@H](Cc3ccc(O)cc3)C(=O)N(Cc3cccc4c(-c5ccc(NC(=O)c6ccc(NC)cc6)cc5)cn(C)c34)C[C@@H]2N1C(=O)NCc1ccccc1` [Compound D-56] were less than 4.60 and 12.5 nM.
Take `C=CCN1CC(=O)N2[C@@H](Cc3ccc(O)cc3)C(=O)N(Cc3cccc4c(-c5ccc(NC(=O)N6CCOCC6)cc5)cn(C)c34)C[C@@H]2N1C(=O)NCc1ccccc1` [Compound D-59]: the pIC50 in data set [1] was 5.66. Moreover, halving of growth in data set [2] (GI50) required 1.2 nM.
Taken in the same sequence, the figures for `C=CCN1CC(=O)N2[C@@H](Cc3ccc(O)cc3)C(=O)N(Cc3cccc4c(-c5ccc(NC(=O)NCCc6ccccc6)cc5)cn(C)c34)C[C@@H]2N1C(=O)NCc1ccccc1` [Compound D-75] were 4.98 and 17 nM.
Taken in the same sequence, the figures for `C=CCN1CC(=O)N2[C@@H](Cc3ccc(O)cc3)C(=O)N(Cc3cccc4c(-c5ccc(NC(=O)Nc6ccc(OC)cc6)cc5)cn(C)c34)C[C@@H]2N1C(=O)NCc1ccccc1` [Compound D-76] were 5.02 and 15.8 nM.
The corresponding values for `C=CCN1CC(=O)N2[C@@H](Cc3ccc(O)cc3)C(=O)N(Cc3cccc4c(-c5ccc(NC(=O)NC6CCCC6)cc5)cn(C)c34)C[C@@H]2N1C(=O)NCc1ccccc1` [Compound D-79] are 5.11 and 10.8 nM.
Take `C=CCN1CC(=O)N2[C@@H](Cc3ccc(O)cc3)C(=O)N(Cc3cccc4c(-c5ccc(NC(=O)Nc6ncccn6)cc5)cn(C)c34)C[C@@H]2N1C(=O)NCc1ccccc1` [Compound D-82]: in data set [1], the pIC50 was 5.07. The same compound came in with a GI50 in data set [2] of 16.8 nM.
Taken in the same sequence, the figures for `C=CCN1CC(=O)N2[C@@H](Cc3ccc(O)cc3)C(=O)N(Cc3cccc4c(-c5ccc(NC(=O)Nc6cnccn6)cc5)cn(C)c34)C[C@@H]2N1C(=O)NCc1ccccc1` [Compound D-83] were 5.34 and 13.8 nM.
The corresponding values for `C=CCN1CC(=O)N2[C@@H](Cc3ccc(O)cc3)C(=O)N(Cc3cccc4c(-c5ccc(NC(=O)N6CCOCC6)nc5)cn(C)c34)C[C@@H]2N1C(=O)NCc1ccccc1` [Compound D-88] are 4.99 and 1.2 nM.
The corresponding values for `C=CCN1CC(=O)N2[C@@H](Cc3ccc(O)cc3)C(=O)N(Cc3cccc4c(-c5ccc(C(=O)N6CCN(S(C)(=O)=O)CC6)nc5)cn(C)c34)C[C@@H]2N1C(=O)NCc1ccccc1` [Compound D-90] are 5.16 and 4.6 nM.
The compound `C=CCN1CC(=O)N2[C@@H](Cc3ccc(O)cc3)C(=O)N(Cc3cccc4c(-c5ccc(C(=O)N6CCN(C)CC6)nc5)cn(C)c34)C[C@@H]2N1C(=O)NCc1ccccc1` [Compound D-91] gave a pIC50 in data set [1] of 5.19. In data set [2], this compound gave a GI50 of 1.3 nM.
In the case of `C=CCN1CC(=O)N2[C@@H](Cc3ccc(O)cc3)C(=O)N(Cc3cccc4c(-c5ccc(NC(=O)N6CCN(S(C)(=O)=O)CC6)nc5)cn(C)c34)C[C@@H]2N1C(=O)NCc1ccccc1` [Compound D-97], in data set [1], the negative logarithm of the IC50 (pIC50) is 5.19. In addition, the GI50 in data set [2] is 2.2 nM.
The corresponding values for `C=CCN1CC(=O)N2[C@@H](Cc3ccc(O)cc3)C(=O)N(Cc3cccc4c(-c5ccc(NC(=O)NC6CCN(C)CC6)nc5)cn(C)c34)C[C@@H]2N1C(=O)NCc1ccccc1` [Compound D-98] are 5.53 and 23 nM.
The corresponding values for `C=CCN1CC(=O)N2[C@@H](Cc3ccc(O)cc3)C(=O)N(Cc3cccc4c(-c5ccc(C(=O)N(C)C)o5)cn(C)c34)C[C@@H]2N1C(=O)NCc1ccccc1` [Compound D-102] are 5.47 and 1.6 nM.
Taken in the same sequence, the figures for `C=CCN1CC(=O)N2[C@@H](Cc3ccc(O)cc3)C(=O)N(Cc3cccc4c(C(=O)N5CCOCC5)cn(C)c34)C[C@@H]2N1C(=O)NCc1ccccc1` [Compound E-3] were 5.41 and 18.4 nM.
For the compound `C=CCN1CC(=O)N2[C@@H](Cc3ccc(O)cc3)C(=O)N(Cc3cccc4c(C(=O)N5CCN(C)CC5)cn(C)c34)C[C@@H]2N1C(=O)NCc1ccccc1` [Compound E-4], in data set [1], the pIC50 was 4.91. In data set [2], the 50% growth inhibitory concentration (GI50) was found to be 11.2 nM.
Taken in the same sequence, the figures for `C=CCN1CC(=O)N2[C@@H](Cc3ccc(O)cc3)C(=O)N(Cc3cccc4c(C(=O)N5CCN(C(C)C)CC5)cn(C)c34)C[C@@H]2N1C(=O)NCc1ccccc1` [Compound E-7] were 5.65 and 11.3 nM.
The corresponding values for `C=CCN1CC(=O)N2[C@@H](Cc3ccc(O)cc3)C(=O)N(Cc3cccc4c(C(=O)N5CCN(CCOC)CC5)cn(C)c34)C[C@@H]2N1C(=O)NCc1ccccc1` [Compound E-10] are 5.04 and 10.8 nM.
`C=CCN1CC(=O)N2[C@@H](Cc3ccc(O)cc3)C(=O)N(Cc3cccc4c(C(=O)N5CCN(CCN6CCOCC6)CC5)cn(C)c34)C[C@@H]2N1C(=O)NCc1ccccc1` [Compound E-25] showed a pIC50 in data set [1] of 5.22. Besides, the GI50 in data set [2] turned out to be 20.4 nM.
Compound `C=CCN1CC(=O)N2[C@@H](Cc3ccc(O)cc3)C(=O)N(Cc3cccc4c(C(=O)N5CCN6CCCC6C5)cn(C)c34)C[C@@H]2N1C(=O)NCc1ccccc1` (some centres unmarked) [Compound E-43] gave a pIC50 in data set [1] of 5.18. In addition, in data set [2], the GI50 was 15.1 nM.
Taken in the same sequence, the figures for `C=CCN1CC(=O)N2[C@@H](Cc3ccc(O)cc3)C(=O)N(Cc3cccc4c(C(=O)N5CCN6CCN(CC(C)C)CC6C5)cn(C)c34)C[C@@H]2N1C(=O)NCc1ccccc1` (some centres unmarked) [Compound E-45] were 5.40 and 1.8 nM.
Taken in the same sequence, the figures for `C=CCN1CC(=O)N2[C@@H](Cc3ccc(O)cc3)C(=O)N(Cc3cccc4c(C(=O)N5CCN6CCN(C(=O)OC(C)(C)C)CC6C5)cn(C)c34)C[C@@H]2N1C(=O)NCc1ccccc1` (some centres unmarked) [Compound E-47] were 5.66 and 13.5 nM.
The corresponding values for `C=CCN1CC(=O)N2[C@@H](Cc3ccc(O)cc3)C(=O)N(Cc3cccc4c(C(=O)N5CCC(OC)CC5)cn(C)c34)C[C@@H]2N1C(=O)NCc1ccccc1` [Compound E-52] are 5.48 and 9.2 nM.
Regarding `C=CCN1CC(=O)N2[C@@H](Cc3ccc(O)cc3)C(=O)N(Cc3cccc4c(C(=O)N5CCC(C(=O)OCC)CC5)cn(C)c34)C[C@@H]2N1C(=O)NCc1ccccc1` [Compound E-53], the pIC50 in data set [1] was 5.41. The same compound registered a GI50 in data set [2] of 1.9 nM.
The corresponding values for `C=CCN1CC(=O)N2[C@@H](Cc3ccc(O)cc3)C(=O)N(Cc3cccc4c(C(=O)N5CCC(N6CCOCC6)CC5)cn(C)c34)C[C@@H]2N1C(=O)NCc1ccccc1` [Compound E-65] are 5.68 and 13 nM.
Turning to `C=CCN1CC(=O)N2[C@@H](Cc3ccc(O)cc3)C(=O)N(Cc3cccc4c(C(=O)N5CC(N6CCC(OC)CC6)C5)cn(C)c34)C[C@@H]2N1C(=O)NCc1ccccc1` [Compound E-73], the pIC50 in data set [1] was 4.93. Besides, growth in data set [2] was halved (GI50) at 19.3 nM.
The corresponding values for `C=CCN1CC(=O)N2[C@@H](Cc3ccc(O)cc3)C(=O)N(Cc3cccc4c(C(=O)N(C)CCO)cn(C)c34)C[C@@H]2N1C(=O)NCc1ccccc1` [Compound F-3] are 5.60 and 7.6 nM.
The corresponding values for `C=CCN1CC(=O)N2[C@@H](Cc3ccc(O)cc3)C(=O)N(Cc3cccc4c(C(=O)N(C)CCCO)cn(C)c34)C[C@@H]2N1C(=O)NCc1ccccc1` [Compound F-5] are 5.43 and 16 nM.
In data set [1], `C=CCN1CC(=O)N2[C@@H](Cc3ccc(O)cc3)C(=O)N(Cc3cccc4c(C(=O)NCCCOC)cn(C)c34)C[C@@H]2N1C(=O)NCc1ccccc1` [Compound F-6] showed a pIC50 of 5.42. This compound also gave a GI50 in data set [2] of 11.9 nM.
The corresponding values for `C=CCN1CC(=O)N2[C@@H](Cc3ccc(O)cc3)C(=O)N(Cc3cccc4c(C(=O)N(C)CC5(CO)CC5)cn(C)c34)C[C@@H]2N1C(=O)NCc1ccccc1` [Compound F-9] are 5.60 and 15.4 nM.
On to `C=CCN1CC(=O)N2[C@@H](Cc3ccc(O)cc3)C(=O)N(Cc3cccc4c(C(=O)NCCCCOC)cn(C)c34)C[C@@H]2N1C(=O)NCc1ccccc1` [Compound F-10], for which, in data set [1], the pIC50 was 5.70. This compound also showed a GI50 in data set [2] of 15.1 nM.
The corresponding values for `C=CCN1CC(=O)N2[C@@H](Cc3ccc(O)cc3)C(=O)N(Cc3cccc4c(C(=O)N(C)CCN5CCOCC5)cn(C)c34)C[C@@H]2N1C(=O)NCc1ccccc1` [Compound F-26] are 5.54 and 19.8 nM.
